Test results: EP4603105A1, “PHARMACEUTICAL COMPOSITION CONTAINING CYCLIC COMPOUND HAVING SELECTIVE KRAS INHIBITORY EFFECT AGAINST HRAS AND NRAS” (CHUGAI SEIYAKU KABUSHIKI KAISHA, priority 2022, dated 2024)
pIC50: −log10 of the molar value. Where two headings read alike, the source gives them in different places.

Columns and labels:
[1] = molecular target: GDP-bound NRAS wild-type protein (Homo sapiens, UniProt P01111); assay: Binding to NRAS by surface plasmon resonance (SPR), KD and KD ratio to KRAS; conditions: ratio of KD for GDP-bound NRAS wild-type protein to KD for KRAS
Outline: (§1)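 Measured at 30°C: SPR with GDP-loaded, E. coli-expressed biotin-Avi RAS captured (~100–300 RU), ascending 75 s compound injections, HBS pH 7.4 with GDP, MgCl2, 4% DMSO. KD from 1:1 fit.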

HRAS wild-type protein = HRAS wild-type protein (Homo sapiens, UniProt P01112); assay: Binding to HRAS by surface plasmon resonance (SPR), KD and KD ratio to KRAS; conditions: ratio of KD for HRAS wild-type protein to KD for KRAS
Outline: as §1

[2] = system: human lung cancer strain NCI-H441; type: cell-based
Outline: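 Signal came from […] measured per well once the reagent was added. Beforehand, cells were cultured at 37°C and 5% carbon dioxide on a compound series serially diluted in dimethyl sulfoxide.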

[3] = NCI-H441 cells, 4 days, CellTiter-Glo, read-out: NCl-H441 IC50

Sequence of HRAS wild-type protein (P01112 whole entry): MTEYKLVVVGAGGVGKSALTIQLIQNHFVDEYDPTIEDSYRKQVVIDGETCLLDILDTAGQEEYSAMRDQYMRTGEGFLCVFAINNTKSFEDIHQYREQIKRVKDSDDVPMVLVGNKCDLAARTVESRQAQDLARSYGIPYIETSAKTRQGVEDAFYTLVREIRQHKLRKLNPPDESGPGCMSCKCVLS
Sequence of GDP-bound NRAS wild-type protein (P01111 whole entry): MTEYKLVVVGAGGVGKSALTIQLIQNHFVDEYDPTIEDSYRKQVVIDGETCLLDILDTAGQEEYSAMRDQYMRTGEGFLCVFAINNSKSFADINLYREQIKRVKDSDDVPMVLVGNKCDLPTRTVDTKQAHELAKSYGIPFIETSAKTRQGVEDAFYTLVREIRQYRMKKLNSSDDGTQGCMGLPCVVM

SMILES | pIC50 [2] | NRAS /KRAS [1] | HRAS /KRAS (HRAS wild-type protein) | pIC50 [2, 3]
CCCC[C@H]1C(=O)N[C@@H]([C@@H](C)CC)C(=O)N(C)CC(=O)N(C)[C@H]2C/C=C\CCN(C2=O)[C@@H](Cc2ccc(C(F)(F)F)cc2)C(=O)N(C)CC(=O)N[C@@H](CCc2ccc(C(F)(F)F)c(OC)c2)C(=O)N2C[C@H](OCC)C[C@H]2C(=O)NC2(CCC2)C(=O)N(C)[C@@H](C2CCCC2)C(=O)N(C)[C@H](C(=O)N(C)CC)CC(=O)N1C [PP2840] | 8.08 | A (a compound having 10 or more and less than 20 is denoted as A) | A (a compound having 10 or more and less than 20 is denoted as A) | –
C#CC[C@H]1C(=O)N[C@@H]([C@@H](C)CC)C(=O)N(C)CC(=O)N(C)[C@H]2C/C=C\CCN(C2=O)[C@@H](Cc2ccc(C(F)(F)F)cc2)C(=O)N(C)CC(=O)N[C@@H](CCc2ccc(Cl)c(Cl)c2)C(=O)N2C[C@H](OCC)C[C@H]2C(=O)NC2(CC(C)(C)C2)C(=O)N(C)[C@@H](C2CCCC2)C(=O)N(C)[C@H](C(=O)N(C)CC)CC(=O)N1C [PP2843] | 7.75 | A (a compound having 10 or more and less than 20 is denoted as A) | A (a compound having 10 or more and less than 20 is denoted as A) | –
CCC[C@H]1C(=O)N[C@@H]([C@@H](C)CC)C(=O)N(C)CC(=O)N(C)[C@H]2C/C=C\CCN(C2=O)[C@@H](Cc2ccc(C(F)(F)F)cc2)C(=O)N(C)CC(=O)N[C@@H](CCc2cc(F)c3c(c2)CCC3)C(=O)N2C[C@H](OCC)C[C@H]2C(=O)NC2(CC(C)(C)C2)C(=O)N(C)[C@@H](C2CCCC2)C(=O)N(C)[C@H](C(=O)N(C)C)CC(=O)N1C [PP2849] | 7.55 | A (a compound having 10 or more and less than 20 is denoted as A) | A (a compound having 10 or more and less than 20 is denoted as A) | –
CCC[C@H]1C(=O)N[C@@H]([C@@H](C)CC)C(=O)N(C)CC(=O)N(C)[C@H]2C/C=C\CCN(C2=O)[C@@H](Cc2ccc(C(F)(F)F)cc2)C(=O)N(C)CC(=O)N[C@@H](CCc2ccc(C(F)(F)F)c(C3CC3)c2)C(=O)N2C[C@H](OCC)C[C@H]2C(=O)NC2(CC(C)(C)C2)C(=O)N(C)[C@@H](C2CCCC2)C(=O)N(C)[C@H](C(=O)N(C)C)CC(=O)N1C [PP2852] | 8.06 | B (a compound having 3 or more and less than 10 is denoted as B) | B (a compound having 3 or more and less than 10 is denoted as B) | –
CCC[C@H]1C(=O)N[C@@H]([C@@H](C)CC)C(=O)N(C)CC(=O)N(C)[C@H]2C/C=C\CCN(C2=O)[C@@H](Cc2ccc(C(F)(F)F)cc2)C(=O)N(C)CC(=O)N[C@@H](CCc2ccc(C3CC3)c(OC)c2)C(=O)N2C[C@H](OCC)C[C@H]2C(=O)NC2(CC(C)(C)C2)C(=O)N(C)[C@@H](C2CCCC2)C(=O)N(C)[C@H](C(=O)N(C)C)CC(=O)N1C [PP2853] | – | A (a compound having 10 or more and less than 20 is denoted as A) | A (a compound having 10 or more and less than 20 is denoted as A) | 7.40
CCC[C@H]1C(=O)N[C@@H]([C@@H](C)CC)C(=O)N(C)CC(=O)N(C)[C@H]2C/C=C\CCN(C2=O)[C@@H](Cc2ccc(C(F)(F)F)cc2)C(=O)N(C)CC(=O)N[C@@H](CCc2ccc(C3CC3)c(C)c2)C(=O)N2C[C@H](OCC)C[C@H]2C(=O)NC2(CC(C)(C)C2)C(=O)N(C)[C@@H](C2CCCC2)C(=O)N(C)[C@H](C(=O)N(C)C)CC(=O)N1C [PP2855] | – | A (a compound having 10 or more and less than 20 is denoted as A) | A (a compound having 10 or more and less than 20 is denoted as A) | 7.42

Further molecules by rising pIC50 [2], results first:

pIC50 [2] | SMILES | NRAS /KRAS [1] | HRAS /KRAS (HRAS wild-type protein) | pIC50 [2, 3]
7.54 | CCC[C@H]1C(=O)N[C@@H]([C@@H](C)CC)C(=O)N(C)CC(=O)N(C)[C@H]2C/C=C\CCN(C2=O)[C@@H](Cc2ccc(C(F)(F)F)cc2)C(=O)N(C)CC(=O)N[C@@H](CCc2ccc(CC)c(Cl)c2)C(=O)N2C[C@H](OCC)C[C@H]2C(=O)NC2(CC(C)(C)C2)C(=O)N(C)[C@@H](C2CCCC2)C(=O)N(C)[C@H](C(=O)N(C)C)CC(=O)N1C [PP2848] | A (a compound having 10 or more and less than 20 is denoted as A) | A (a compound having 10 or more and less than 20 is denoted as A) | –
7.89 | CCO[C@@H]1C[C@H]2C(=O)NC3(CC(C)(C)C3)C(=O)N(C)[C@@H](C3CCCC3)C(=O)N(C)[C@H](C(=O)N(C)CC)CC(=O)N(C)[C@@H](COC)C(=O)N[C@@H]([C@@H](C)CC)C(=O)N(C)CC(=O)N(C)[C@H]3C/C=C\CCN(C3=O)[C@@H](Cc3ccc(C(F)(F)F)cc3)C(=O)N(C)CC(=O)N[C@@H](CCc3ccc(Cl)c(Cl)c3)C(=O)N2C1 [PP2835] | A (a compound having 10 or more and less than 20 is denoted as A) | A (a compound having 10 or more and less than 20 is denoted as A) | –
7.89 | CCO[C@@H]1C[C@H]2C(=O)NC3(CCCC3)C(=O)N(C)[C@@H](C3CCCC3)C(=O)N(C)[C@H](C(=O)N(C)C)CC(=O)N(C)[C@@H](CC(C)C)C(=O)N[C@@H]([C@@H](C)CC)C(=O)N(C)CC(=O)N(C)[C@H]3C/C=C\CCN(C3=O)[C@@H](Cc3ccc(C(F)(F)F)cc3)C(=O)N(C)CC(=O)N[C@@H](CCc3ccc(Cl)c(Cl)c3)C(=O)N2C1 [PP2837] | AA (a compound having 20 or more is denoted as AA) | A (a compound having 10 or more and less than 20 is denoted as A) | –
8.10 | CCO[C@@H]1C[C@H]2C(=O)NC3(CCCC3)C(=O)N(C)[C@@H](C3CCCC3)C(=O)N(C)[C@H](C(=O)N(C)C)CC(=O)N(C)[C@@H](CC(C)C)C(=O)N[C@@H]([C@@H](C)CC)C(=O)N(C)CC(=O)N(C)[C@H]3C/C=C\CCN(C3=O)[C@@H](Cc3ccc(C(F)(F)F)cc3)C(=O)N(C)CC(=O)N[C@@H](CCc3ccc(C(F)(F)F)c(Cl)c3)C(=O)N2C1 [PP2838] | AA (a compound having 20 or more is denoted as AA) | A (a compound having 10 or more and less than 20 is denoted as A) | –
8.12 | C#CC[C@H]1C(=O)N[C@@H]([C@@H](C)CC)C(=O)N(C)CC(=O)N(C)[C@H]2C/C=C\CCN(C2=O)[C@@H](Cc2ccc(C(F)(F)F)cc2)C(=O)N(C)CC(=O)N[C@@H](CCc2ccc(C(F)(F)F)c(Cl)c2)C(=O)N2C[C@H](OCC)C[C@H]2C(=O)NC2(CC(C)(C)C2)C(=O)N(C)[C@@H](C2CCCC2)C(=O)N(C)[C@H](C(=O)N(C)CC)CC(=O)N1C [PP2844] | A (a compound having 10 or more and less than 20 is denoted as A) | A (a compound having 10 or more and less than 20 is denoted as A) | –
8.14 | CCO[C@@H]1C[C@H]2C(=O)NC3(CCC3)C(=O)N(C)[C@@H](C3CCCC3)C(=O)N(C)[C@H](C(=O)N(C)C)CC(=O)N(C)[C@@H](CC3CCCC3)C(=O)N[C@@H]([C@@H](C)CC)C(=O)N(C)CC(=O)N(C)[C@H]3C/C=C\CCN(C3=O)[C@@H](Cc3ccc(C(F)(F)F)cc3)C(=O)N(C)CC(=O)N[C@@H](CCc3ccc(C(F)(F)F)c(Cl)c3)C(=O)N2C1 [PP2842] | A (a compound having 10 or more and less than 20 is denoted as A) | B (a compound having 3 or more and less than 10 is denoted as B) | –
8.29 | CCO[C@@H]1C[C@H]2C(=O)NC3(CC(C)(C)C3)C(=O)N(C)[C@@H](C3CCCC3)C(=O)N(C)[C@H](C(=O)N(C)CC)CC(=O)N(C)[C@@H](COC)C(=O)N[C@@H]([C@@H](C)CC)C(=O)N(C)CC(=O)N(C)[C@H]3C/C=C\CCN(C3=O)[C@@H](Cc3ccc(C(F)(F)F)cc3)C(=O)N(C)CC(=O)N[C@@H](CCc3ccc(C(F)(F)F)c(Cl)c3)C(=O)N2C1 [PP2836] | A (a compound having 10 or more and less than 20 is denoted as A) | A (a compound having 10 or more and less than 20 is denoted as A) | –
8.29 | CCO[C@@H]1C[C@H]2C(=O)NC3(CCC3)C(=O)N(C)[C@@H](C3CCCC3)C(=O)N(C)[C@H](C(=O)N(C)CC)CC(=O)N(C)[C@@H](CC(C)C)C(=O)N[C@@H]([C@@H](C)CC)C(=O)N(C)CC(=O)N(C)[C@H]3C/C=C\CCN(C3=O)[C@@H](Cc3ccc(C(F)(F)F)cc3)C(=O)N(C)CC(=O)N[C@@H](CCc3ccc(C(F)(F)F)c(OC)c3)C(=O)N2C1 [PP2846] | AA (a compound having 20 or more is denoted as AA) | A (a compound having 10 or more and less than 20 is denoted as A) | –
8.42 | CCO[C@@H]1C[C@H]2C(=O)NC3(CC(C)(C)C3)C(=O)N(C)[C@@H](C3CCCC3)C(=O)N(C)[C@H](C(=O)N(C)C)CC(=O)N(C)[C@@H](CC(F)(F)F)C(=O)N[C@@H]([C@@H](C)CC)C(=O)N(C)CC(=O)N(C)[C@H]3C/C=C\CCN(C3=O)[C@@H](Cc3ccc(C(F)(F)F)cc3)C(=O)N(C)CC(=O)N[C@@H](CCc3ccc(C(F)(F)F)c(Cl)c3)C(=O)N2C1 [PP2833] | A (a compound having 10 or more and less than 20 is denoted as A) | A (a compound having 10 or more and less than 20 is denoted as A) | –
